Measurements reported in PubChem BioAssay (NCI).
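Following 48 hours of exposure in 96-well plates, responses at five concentrations were used to interpolate endpoints linearly. Definition used: TGI = concentration required for complete inhibition of growth.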 Where a SMILES comes first, the peptide text is derived from it. [ ]: non-standard residue; d: D form. The star is where a group is joined. X28 = COC1=CC(=O)N(C(=O)[C@@H](O*)C(C)C)[C@H]1Cc1ccccc1; NMeL = CN[C@@H](CC(C)C)C(=O)O; Hexanoyl = CCCCCC(=O)*; Boc = CC(C)(C)OC(=O)*; OBn = c1ccc(CO*)cc1; Bn = c1ccc(C*)cc1

Experiments:
Assay in all cases: NCI-60 cell line screen, 48 h
786-0 renal = test system: 786-0 renal
COLO 205 colon = test system: COLO 205 colon
UACC-62 melanoma = test system: UACC-62 melanoma
MDA-MB-435 = test system: MDA-MB-435
OVCAR-8 ovarian = test system: OVCAR-8 ovarian
SK-MEL-2 melanoma = test system: SK-MEL-2 melanoma
MCF7 breast = test system: MCF7 breast
OVCAR-3 ovarian = test system: OVCAR-3 ovarian
EKVX NSCLC = test system: EKVX NSCLC
OVCAR-4 ovarian = test system: OVCAR-4 ovarian
NCI-H23 lung = test system: NCI-H23 lung
SK-OV-3 ovarian = test system: SK-OV-3 ovarian
HT29 colon = test system: HT29 colon
SR leukemia = test system: SR leukemia
T-47D breast = test system: T-47D breast
HCT-15 colon = test system: HCT-15 colon
U251 CNS = test system: U251 CNS
HOP-92 NSCLC = test system: HOP-92 NSCLC
RXF 393 renal = test system: RXF 393 renal
SNB-75 CNS = test system: SNB-75 CNS

SMILES | TGI (786-0 renal) [µM] | TGI (COLO 205 colon) [µM] | TGI (UACC-62 melanoma) [µM] | TGI (MDA-MB-435) [µM] | TGI (OVCAR-8 ovarian) [µM] | TGI (SK-MEL-2 melanoma) [µM] | TGI (MCF7 breast) [µM] | TGI (OVCAR-3 ovarian) [µM] | TGI (EKVX NSCLC) [µM] | TGI (OVCAR-4 ovarian) [µM] | TGI (NCI-H23 lung) [µM] | TGI (SK-OV-3 ovarian) [µM] | TGI (HT29 colon) [µM] | TGI (SR leukemia) [µM] | TGI (T-47D breast) [µM] | TGI (HCT-15 colon) [µM] | TGI (U251 CNS) [µM] | TGI (HOP-92 NSCLC) [µM] | TGI (RXF 393 renal) [µM] | TGI (SNB-75 CNS) [µM]
CC(C)(C)NCC(O)COc1cccc2[nH]c(C#N)cc12 (stereo unspecified) | > 100 | > 100 | > 100 | > 100 | > 100 | > 100 | > 100 | > 100 | > 100 | > 100 | > 100 | > 100 | > 100 | > 100 | > 100 | > 100 | > 100 | – | – | –
CCc1nnc2sc(-c3ccc(-c4ccc(Cl)cc4Cl)o3)nn12 | > 100 | > 100 | – | > 100 | > 100 | > 100 | – | > 100 | > 100 | > 100 | > 100 | > 100 | > 100 | > 100 | > 100 | > 100 | > 100 | > 100 | 22.3 | 56
O=C1/C(=C/c2ccc(O)cc2)CCC1CNc1ccc(Cl)cc1 (stereo unspecified) | 4.58 | 3.24 | 5.86 | 17.3 | 7.1 | 28.7 | 6.82 | 6.1 | 21.5 | 8.86 | 24.3 | 20.9 | 14.9 | 5.51 | – | 2.83 | 21.3 | 28.4 | 15.6 | 29.7
CC1OC(OC2C(CO)OC(O[C@H]3CC[C@@]4(C)C(=CC[C@H]5[C@@H]6C[C@@H]7O[C@](O)(CC[C@@H](C)COC8OC(CO)C(O)C(O)C8O)[C@@H](C)[C@@H]7[C@@]6(C)CC[C@@H]54)C3)C(OC3OC(C)C(O)C(O)C3O)C2O)C(O)C(O)C1O (stereo partly specified) | 3.89 | 6.81 | 5.68 | 9.32 | 4.09 | 12.3 | 5.93 | 29.8 | 57.1 | 20.8 | 10.3 | 7.34 | – | 11 | 17.9 | 3.91 | 3.62 | – | 5.38 | 3.26
CC1(C)COC(c2cccc(C3=NC(C)(C)CO3)c2)=N1 | > 100 | > 100 | > 100 | > 100 | > 100 | > 100 | > 100 | – | > 100 | > 100 | > 100 | – | > 100 | > 100 | > 100 | > 100 | > 100 | > 100 | – | –
Cc1nn(-c2ccccc2)c(C)c1/C=N/NC(=O)c1sc(=S)n(-c2ccc(Cl)cc2)c1N | 59.9 | 38.9 | 74.1 | > 100 | > 100 | > 100 | > 100 | > 100 | 8.91 | 95.7 | > 100 | > 100 | > 100 | > 100 | > 100 | > 100 | > 100 | – | 6 | 5.49
CC1(C)OC1CC/C(=C/CBr)CBr (stereo unspecified) | 28.7 | 29.4 | – | 31.9 | – | 29 | 28.5 | 33.7 | 33.3 | 32.1 | 29.6 | 48.5 | 30 | 64.6 | – | – | 29.3 | 29.4 | 31.2 | 21
c1ccc(/C(=N/Nc2cnccn2)c2ncccn2)cc1 | > 100 | > 100 | > 100 | > 100 | > 100 | > 100 | > 100 | > 100 | > 100 | > 100 | > 100 | > 100 | > 100 | > 100 | – | > 100 | > 100 | > 100 | > 100 | > 100
CC(C)CC(NC(=O)C(Cc1ccccc1)NC(=O)C(COCc1ccccc1)NC(=O)OC(C)(C)C)C(=O)OCc1ccccc1 (stereo not drawn) (Boc-Ser(Bn)-Phe-Leu-OBn; configuration not given here) | 30.8 | 43.9 | 33 | – | 34.6 | > 100 | > 100 | > 100 | 61.5 | > 100 | 43.2 | > 100 | 43.9 | 44.3 | > 100 | 76 | 53.2 | – | – | 57.6
Cc1cccc(Nc2cn(CCOc3ccccc3)c(=O)[nH]c2=O)c1 | > 100 | 36.8 | > 100 | > 100 | – | – | > 100 | 52.8 | 39.8 | > 100 | > 100 | – | – | > 100 | – | > 100 | > 100 | 84 | > 100 | –
CCC1OC2C(CC=C(C)C)=C3OC(C)(O)C(C)(CC)C(O)C3=C3OC(=O)C=C1C32 (stereo unspecified) | > 100 | > 100 | > 100 | > 100 | – | 84.5 | > 100 | – | > 100 | > 100 | 57.7 | > 100 | – | – | > 100 | > 100 | > 100 | 54.9 | – | –
COc1ccc(N(C(=O)OC(C)(C)C)[C@@H]2C(C)=C[C@H]([S@@](=O)c3ccc(C)cc3)[C@@H]3C(=O)N(C)C(=O)[C@@H]32)cc1 | 37.9 | 31 | 48.4 | 37.9 | 46.7 | 39.3 | 62.1 | 80.8 | 9.85 | 34.2 | 45.7 | 30.3 | 45.5 | – | 99.8 | > 100 | 31.9 | 61.5 | 30.4 | 21.4
CC(=O)NC1C(OCC(=O)NC(C)C(=O)NC(CCC(=O)NCCCCCNc2ccc([N+](=O)[O-])c3[nH]c4ccccc4c(=O)c23)C(N)=O)C(O)C(CO)OC1(C)OCc1ccccc1 (stereo unspecified) | > 50 | > 50 | > 50 | > 50 | > 50 | > 50 | > 50 | > 50 | > 50 | > 50 | > 50 | > 50 | > 50 | – | > 50 | > 50 | > 50 | – | 19.5 | > 50
N#CC(C(=O)c1ccccc1F)c1nc2cc(C(F)(F)F)ccc2s1 (stereo unspecified) | 60.5 | 49.5 | – | > 100 | > 100 | – | – | 52.7 | 81.6 | > 100 | 53.9 | > 100 | 53.2 | – | > 100 | 56.7 | > 100 | 56.2 | > 100 | > 100
NS(=O)(=O)c1ccc(CNC(=S)NC(=O)Nc2ccc(Cl)c(Cl)c2)cc1 | 34.3 | 77.4 | 29.3 | – | 53.4 | 31.4 | 39 | – | – | > 100 | 30.2 | 52.8 | 61.1 | – | 60.2 | 31.8 | 26.7 | 52.9 | 84.7 | 60.2
COC(=O)CP1(=O)OC2C(C3CCC2(C)C3(C)C)N1c1cc(C(F)(F)F)cc(C(F)(F)F)c1 (stereo unspecified) | 41.7 | 49.1 | > 100 | 60.6 | > 100 | 46.4 | > 100 | 34.4 | > 100 | > 100 | 86.3 | 80.5 | > 100 | 62.6 | 71 | 97.5 | > 100 | – | – | 51.9
CCCCCC(=O)N[C@H](C(=O)N[C@H](C(=O)N(C)[C@@H](CC(C)C)C(=O)N1CCC[C@H]1C(=O)N1CCC[C@H]1C(=O)O[C@H](C(=O)N1C(=O)C=C(OC)[C@@H]1Cc1ccccc1)C(C)C)C(C)C)C(C)C (Hexanoyl-VV[NMeL]PP-X28) | > 100 | > 100 | > 100 | > 100 | > 100 | > 100 | > 100 | > 100 | > 100 | > 100 | > 100 | > 100 | > 100 | – | > 100 | > 100 | > 100 | > 100 | 90.3 | 70.8
COc1ccc(NS(=O)C2CCCCC2)cc1 (stereo unspecified) | > 100 | > 100 | – | > 100 | > 100 | – | > 100 | > 100 | > 100 | – | > 100 | – | > 100 | > 100 | – | > 100 | > 100 | – | > 100 | > 100
COc1cccc(-n2nnc3c(N)nc(N)nc32)c1 | > 100 | > 100 | > 100 | > 100 | > 100 | > 100 | > 100 | > 100 | > 100 | > 100 | 76.3 | > 100 | > 100 | – | > 100 | > 100 | > 100 | > 100 | – | > 100
CCOC(=O)Cc1csc(/N=C\c2c(O)c3ccccc3oc2=O)n1 | > 100 | > 100 | > 100 | 85.4 | > 100 | 40.4 | > 100 | 77.1 | > 100 | > 100 | 94.4 | > 100 | > 100 | 52 | – | > 100 | > 100 | 47.3 | > 100 | 56.7
Cc1cc2nc3c(C#N)c(-c4ccccc4)/c(=C\Nc4cccc(C(F)(F)F)c4)c(=O)n3c2cc1C | > 100 | > 100 | – | > 100 | > 100 | > 100 | > 100 | 54.4 | > 100 | > 100 | > 100 | > 100 | – | – | > 100 | > 100 | > 100 | – | > 100 | > 100
CCOC(=O)/C(O)=C(\C=N\C(=S)Nc1ccc(Cl)c(Cl)c1)C(=O)OCC | > 100 | > 100 | > 100 | > 100 | > 100 | > 100 | > 100 | > 100 | > 100 | > 100 | > 100 | > 100 | > 100 | > 100 | – | > 100 | > 100 | > 100 | > 100 | > 100
COCOc1cc(OC)ccc1C=O | > 100 | 54.2 | > 100 | 40.6 | > 100 | > 100 | > 100 | 63.8 | > 100 | > 100 | > 100 | > 100 | 66.8 | 78.4 | > 100 | > 100 | > 100 | – | 39.1 | > 100
Fc1ccc(C(=NCc2ccccc2)N2CCOCC2)cc1 | > 100 | > 100 | > 100 | > 100 | > 100 | > 100 | > 100 | > 100 | > 100 | – | > 100 | > 100 | > 100 | > 100 | – | > 100 | > 100 | – | > 100 | > 100
CC(C)=NN/C(=N\S(=O)(=O)c1cc(Cl)c(Oc2ccc([N+](=O)[O-])cc2Cl)c(Cl)c1)Nc1ccc(Cl)cc1 | > 100 | > 100 | > 100 | > 100 | > 100 | > 100 | > 100 | > 100 | > 100 | > 100 | > 100 | – | > 100 | – | > 100 | > 100 | > 100 | > 100 | – | –
